Key:
Sprague-Dawley rats = test: Withdrawal latencies after noxious thermal (laser) stimulation to the ears or hindpaws after intranasal administration; type: in vivo, rat; settings: 10 μg intranasal, tested five minutes after final application
Text: Activity of an analgesic agent can be tested in a rat model by studying treatment-induced changes in latencies (times) of withdrawal in response to noxious heating of the skin, typically applying a stimulus to an ear or a hindpaw. Thus, application of coherent or non-coherent (non-laser) radiant heat to the ear or hindpaw will elicit rapid withdrawal movements. […] Transmucosal or transdermal administration of analgesic agents can be tested for regional and/or systemic analgesia. After administration of an analgesic agent an increase in latency to withdrawal time of the ear would indicate regional analgesia. A change in the latency to withdrawal time of the hindpaw would indicate whether there was a systemic analgesic effect, i.e. no change in the latency to withdrawal time indicates no systemic effect, while an increase in latency to withdrawal time would indicate a systemic effect.
Rats are housed in a 12/12-hour light/dark environment and are provided food and water ad libitum. […]
Sprague-Dawley rats (Charles River Laboratories) were lightly anesthetized with urethane and placed with minimal restraint on a heating pad to maintain their body temperature at 37° C. […] Baseline withdrawal latencies were measured by delivering 4 separate stimuli with a resting period of approximately 15 minutes between each stimulus. […] As described above, testing sessions were videotaped and analyzed. […]

[1] = tested on: severe headaches secondary to adult hydrocephalus and multiple shunt surgeries; test: Intranasal oxytocin in a patient, pain rating on VAS (0-10); type: in vivo, human
Method: (§1) Upon presentation at the clinic, a patient is asked for a pain assessment (0-10 rating on VAS). The VAS is an 11-point numerical pain rating scale wherein 0 equals “no pain” and 10 equals the “worst pain imaginable”. The analgesic agent is self-administered by nasal applicator. Initially, one puff is given in each nostril. After waiting 15 minutes the patient is asked again for a pain rating and any side effects (e.g. sedation) are assessed. If pain is still present, another puff per nostril is self-administered. After another 15 minutes, pain and side-effects are assessed. If pain is still present, two mote puffs of agent are self-administered. After 15 minutes, pain is rated again, and side effects are assessed. If pain is still present, a final two puffs are given. After another 15 minutes and at 15, 30 and 60 minutes after that, pain and side-effects are re-assessed.
The patient's pain had been unrelieved by treatment with triptans, ergotamines, and high-dose opiates. The patient presented with a pain rating of 8 out of 10 as assessed by the procedure described herein. The patient self-administered oxytocin intranasally at a dose of 4 IU in 0.2 ml. […] Pain relief lasted approximately 24 hours, only briefly interrupted by mild head pain that occurred with activity.
This patient returned to the clinic approximately 1 month later. At this appointment the patient rated the pain as an 8 out of 10. Unbeknownst to them, the patient was first given an intranasal administration of normal saline, in approximately the same volume as used for the oxytocin administration (0.2 ml). No analgesic or other effect was reported by the patient. After waiting 30 minutes, the patient was administered 4 IU of oxytocin intranasally as described above. Within 20-25 minutes, the patient reported that the pain was completely gone. […] Pain returned approximately 24 hours after treatment.

[2] = tested on: “stress” or tension headache; type: in vivo, human; settings: 4 IU in 0.2 ml intranasal
Method: as §1
A patient was seen reporting a “stress” or tension headache for which they rated their head pain as a 5 out of 10 as assessed by the procedure described herein. The patient was treated with oxytocin administered intranasally at a dose of 4 IU in 0.2 ml. Approximately 10-15 minutes after administration, the patient reported that the pain was completely gone. […] The patient reported being pain free for approximately 48 hours.

“hangover” headache = test: Intranasal oxytocin in a patient, pain rating on VAS (0-10); type: in vivo, human; settings: 24 IU intranasal, baseline 8 out of 10
Method: as §1
A patient was seen reporting a “hangover” headache which was rated as an 8 out of 10 as assessed by the procedure described herein. The patient was treated with oxytocin administered intranasally at a dose of 24 IU. The patient reported that the headache completely resolved within 15 minutes.

“cluster” headache = test: Intranasal oxytocin in a patient with headache; type: in vivo, human; settings: 16 IU intranasal
Method: as §1
A patient was seen reporting having an ongoing strong headache with occasional boring pain on the left side. The pain had lasted for more than 2 weeks and had been diagnosed as a “cluster” headache. The patient was treated with oxytocin administered intranasally at a dose of 16 IU. The patient reported that their headache completely resolved within 15 minutes and relief lasted for 24 hours.

daily migraine = test: Intranasal oxytocin in a patient, pain rating on VAS (0-10); type: in vivo, human; settings: 24 IU intranasal, baseline pain rating 4 out of 10
Method: as §1
A patient was seen after reporting a daily migraine which they rated as a mild to moderate headache with a pain rating of 4 out of 10 as assessed by the procedure described herein. The patient was treated with oxytocin administered intranasally at a dose of 24 IU. The patient reported that the oxytocin decreased the pain to a rating of 2 out of 10.

[3] = tested on: single pain sensing nerve cells in the trigeminal ganglion; test: Trigeminal ganglion nerve impulses in response to noxious laser pulses to the face; type: in vivo, rat; settings: 10 nmoles applied to the nose, post- vs pre-oxytocin
Method: Sprague-Dawley rats (Charles River Laboratories) were anesthetized with isofluorane and a platinum electrode was inserted transcranially into the trigeminal ganglion. Nerve impulses (action potential) were recorded from single pain sensing nerve cells in the trigeminal ganglion in response to application of noxious laser pulses to the face of the rats. After recording responses to several identical laser pulses, 10 nmoles of oxytocin was applied to the nose of the rats. Thereafter, identical laser pulses were once again applied and recorded.

[4] = tested on: trigeminal nucleus caudalis wide dynamic range (WDR) neurons; test: Electrical stimulation-induced responses, single unit extracellular recordings in trigeminal nucleus caudalis; type: in vivo, rat
Method: Male Sprague-Dawley rats (Charles River Laboratories) were anesthetized with isoflurane and used in the following experiments. In the anesthetized rats, single unit, extracellular recordings were performed in trigeminal nucleus caudalis while stimulating the ipsilateral facial skin with constant-current bipolar electrical stimulation. Epoxylate-insulated, tungsten microelectrodes (10 MOhm) were used under stereotaxic coordinate control.
Shown are responses (action potentials per 30 stimuli) to repeated stimulation of a rat's face before oxytocin administration (pre-oxytocin). After administration with oxytocin at approximately 0.1 IU, responses were recorded every five minutes for 65 minutes. A second administration of oxytocin at the same dosage was administered at approximately 70 minutes after the first dose. The approximate site of the administration of the electrical stimulation is indicated by the black spot on a map of the rat's face (FIG. 3B).

[5] = first visit, 4 IU in 0.2 ml intranasal
[6] = first visit, 4 IU intranasal, baseline pain rating 8 out of 10
[7] = approximately 0.1 IU intranasal, first administration
[8] = second dose, same dosage, approximately 70 minutes after the first

SMILES: CC[C@H](C)[C@@H]1NC(=O)[C@H](Cc2ccc(O)cc2)NC(=O)[C@@H](N)CSSC[C@@H](C(=O)N2CCC[C@H]2C(=O)N[C@@H](CC(C)C)C(=O)NCC(N)=O)NC(=O)[C@H](CC(N)=O)NC(=O)[C@H](CCC(N)=O)NC1=O [oxytocin, Cys-Tyr-Ile-Gln-Asn-Cys-Pro-Leu-Gly]
- regional analgesic effect (ear withdrawal latency) (Sprague-Dawley rats; laser to ears): achieved a regional analgesic effect in the head region
- systemic analgesic effect (hindpaw withdrawal latency) (Sprague-Dawley rats; laser to hindpaws): without a systemic analgesic effect at the hindpaw
- sedation [1, 5]: mild sedation
- time for sedation to clear [1, 5]: ≤ 10 min
- time to onset of sedation [1, 5]: ≤ 5 min
- breast tenderness the day after treatment ([1]; first visit, 4 IU intranasal): some breast tenderness
- duration of pain relief ([1]; first visit, 4 IU intranasal): approximately 24 hours
- time for breast tenderness to resolve ([1]; first visit, 4 IU intranasal): ≤ 24 h
- headache pain by 15 minutes after administration [1, 6]: significantly reduced
- time until pain completely gone [1, 6]: ≤ 30 min
- time until pain completely gone ([1]; second visit about 1 month later, 4 IU intranasal 30 minutes after saline, baseline 8 out of 10): 20 to 25 min
- breast tenderness the following day ([1]; second visit, 4 IU intranasal): nor was there any breast tenderness
- sedation ([1]; second visit, 4 IU intranasal): no observed sedation
- time until pain returned after treatment ([1]; second visit, 4 IU intranasal): approximately 24 hours
- duration pain free [2]: approximately 48 hours
- time until pain completely gone ([2]; baseline pain 5 out of 10): 10 to 15 min
- time until headache completely resolved (“hangover” headache): ≤ 15 min
- duration of relief (“cluster” headache): 24 h
- time until headache completely resolved (“cluster” headache): ≤ 15 min
- pain rating after treatment (daily migraine): 2 out of 10
- neuronal response to noxious laser pulses (average nerve impulses per laser pulse) [3]: significantly (p<0.05) reduced
- responses (action potentials per 30 stimuli) after first administration [4, 7]: significant reduction in responses
- time of beginning of reduction in responses after first administration [4, 7]: 10 min
- time post treatment until which reduction continued (responses then began to increase) [4, 7]: 50 min
- responses (action potentials per 30 stimuli) after second administration [4, 8]: significant reduction in responses
- time to reduction in responses after second administration [4, 8]: ≤ 10 min
